{"source": "patent US6759402B2", "about": "“Cyclic felbamate derived compounds” (University of Virginia Patent Foundation, priority 1999, dated 2004)", "key": {"[1]": {"tested_on": "MES-induced seizure spread", "assay": "Maximal Electroshock Seizure (MES) test, mice i.p.", "type": "in vivo", "conditions": "for MES: number of animals protected/total number of animals tested: mice i.p.", "source_text": "(§1) The fluoro derivatives synthesized were submitted to the National Institute of Neurological Disorders and Stroke (NINDS) for evaluation in a standard panel of assays. Two convulsant tests (MES and scMET), and a toxicity screen (rotorod in mice, positional sense and gait in rats) were employed for evaluating the compounds activity as neuroprotecting agents. These testing procedures are described in detail in Molecular and Cellular Targets for Anti-epileptic Drugs, eds. G. Avanzini, G. Regesta, P. Tanganelli, M. Avoli, 1997, John Libbey & Company Ltd, pp 191-198. The felbamate derivatives were evaluated for anticonvulsant activity following intraperitoneal (i.p.) administration in mice and oral administration in rats.\n(§2) The MES test is a model for generalized tonic-clonic seizures and is used to identify compounds which prevent seizure spread. The behavioral and electrographic seizures generated in this model are consistent with the human disorder. In the MES test, an electrical stimulus of 0.2 s in duration (50 mA in mice and 150 mA in rat at 60 Hz) was delivered via corneal electrodes primed with an electrolyte solution containing an anesthetic agent. Mice were tested at 30 minutes and 4 hours following doses of 30, 100 and 300 mg/kg of test compound. Rats were tested at time intervals between 0.25 and 4 hours following a standard oral dose of 30 mg/kg. Abolition of the hindlimb tonic extensor component indicates the test compound's ability to inhibit MES-induced seizure spread.\n(§3) For the MES and scMET tests the data is presented in the form of the number of animals protected by the administered compound/total number of animals tested. […] Qualitative data was obtained for fluoro felbamate 12 (Tables 1 and 2A), fluoro monocarbamate felbamate 13 (Tables 1 and 2B), and flourodioxo 16 (Tables 1 and 2C) and for cyclic felbamate 21 (Tables 5 and 6B) and cyclic monocarbamate 22 (Tables 5 and 6A). More extensive quantitative data was also obtained for fluoro felbamate 12 in mice (Table 3) and rats (Table 4)."}, "[2]": {"tested_on": "MES-induced seizure spread", "assay": "Maximal Electroshock Seizure (MES) test, rats p.o.", "type": "in vivo", "conditions": "for anti-seizure activity in rats: rat models; for MES: number of animals protected/total number of animals tested: rat p.o.; for MES: number of animals protected/total number of animals tested / MES protection: 30 mg/kg; for MES protection: rats, oral, several timepoints", "source_text": "as §1, §2, §3"}, "[3]": {"tested_on": "rats (positional sense, gait and stance)", "assay": "Minimal neurotoxicity (TOX), positional sense and gait and stance tests, rats p.o.", "type": "in vivo", "conditions": "for TOX: number of animals exhibiting toxic effects/total number of animals tested: rat p.o., 30 mg/kg", "source_text": "as §1, with “G. Avanzini, G. Regesta, P. Tanganelli, M. Avoli, 1997, John Libbey & Company Ltd, pp 191-198.” left out\nRats are examined for behavioral toxicity by the positional sense test and a gait and stance test. […] In the gait and stance test, neurotoxicity is indicated by a circular or zigzag gait, ataxia, abnormal spread of the legs, abnormal posture, tremor hyperactivity, lack of exploratory behavior, somnolence, stupor or catalepsy.\nFor the MES and scMET tests the data is presented in the form of the number of animals protected by the administered compound/total number of animals tested."}, "[4]": {"tested_on": "pentylenetetrazol-induced clonic seizures", "assay": "Subcutaneous Metrazol seizure test (scMET), mice i.p.", "type": "in vivo, Carworth Farms No. 1 mice", "source_text": "as §1\nThis is a model that primarily identifies compounds that raise seizure threshold. With some minor exceptions, the pharmacological profile of the scMET seizure model is consistent with the human condition. The scMET test utilizes a dose of pentylenetetrazol (85 mg/kg in Carworth Farms No. 1 mice and 70 mg/kg in Sprague-Dawley rats) that induces clonic seizures lasting for a period of at least five seconds in 97% (CD97) of animals tested. At the anticipated time of testing the convulsant is administered subcutaneously. The test compound is administered intraperitoneally in mice and orally in rats. Animals are observed over a 30 minute period. Absence of clonic spasms in the observed time period indicates a compound's ability to abolish the effect of pentylenetetrazol on seizure threshold.\nas §3"}, "mice (rotorod)": {"tested_on": "mice (rotorod)", "assay": "Minimal neurotoxicity (TOX), rotorod test, mice i.p.", "type": "in vivo", "conditions": "for TOX: number of animals exhibiting toxic effects/total number of animals tested: mice i.p.", "source_text": "as §1, with “G. Avanzini, G. Regesta, P. Tanganelli, M. Avoli, 1997, John Libbey & Company Ltd, pp 191-198.” left out, “rats. […]” for “rats.”"}, "[5]": {"tested_on": "hippocampal kindled focal seizures", "assay": "Hippocampal kindling model, kindled rats i.p.", "type": "in vivo, adult male Sprague-Dawley rats", "conditions": "for Number Protected/Number Tested: Dose Responses table", "source_text": "The hippocampal kindling model can be used to evaluate a compound's ability to affect both the expression and acquisition of focal seizures. The hippocampal kindling paradigm as described by Lothman and Williamson (Lothman, 1994) allows the temporal effects of a drug to be evaluated in a single animal. This procedure requires the surgical placement of bipolar electrodes in the ventral hippocampus of adult male Sprague-Dawley rats. Stage five behavioral seizures are produced by using a stimulus consisting of a 50 Hz, 10 s train of 1 ms biphasic 200 uA pulses delivered every 30 min for 6 hours (12 stimuli per day) on alternating days for a total of 60 stimulations (five stimulus days). Prior to evaluating a candidate's anticonvulsant activity, a drug free control period consisting of supramaximal stimulations are recorded to verify the stability of a stage five generalized seizure.\nA single dose of the candidate compound is then administered intraperitoneally (i.p.), 15 min following the last control stimulation. The anticonvulsant activity of the drug is assessed every 30 min for three to four hours starting 15 min after administering the test material. After each stimulation, individual Racine seizure scores and afterdischarge durations are recorded. Rats are used again in drug trials after four to five drug- and stimulus-free days."}, "[6]": {"assay": "Stability of oxazinane-dione at relevant pH", "type": "physicochemical"}}, "note": "Marks after values point to notes of the source that are not given here.", "data": [{"smiles": "NC(=O)OCC1(c2ccccc2)COC(=O)N1", "note": "(stereo not drawn) [cyclic felbamate]", "values": [{"measurement": "MES: number of animals protected/total number of animals tested", "setting": "[1]; 30 mg/kg, 0.5 h", "value": "0/1"}, {"measurement": "MES: number of animals protected/total number of animals tested", "setting": "[1]; 30 mg/kg, 4.0 h", "value": "0/1"}, {"measurement": "MES: number of animals protected/total number of animals tested", "setting": "[1]; 100 mg/kg, 0.5 h", "value": "0/3"}, {"measurement": "MES: number of animals protected/total number of animals tested", "setting": "[1]; 100 mg/kg, 4.0 h", "value": "0/3"}, {"measurement": "MES: number of animals protected/total number of animals tested", "setting": "[1]; 300 mg/kg, 0.5 h", "value": "0/1"}, {"measurement": "MES: number of animals protected/total number of animals tested", "setting": "[1]; 300 mg/kg, 4.0 h", "value": "0/1"}, {"measurement": "anti-seizure activity in rats", "setting": "[2]", "value": "potent activity"}, {"measurement": "MES: number of animals protected/total number of animals tested", "setting": "[2]; 0.25 h", "value": "2/4"}, {"measurement": "MES: number of animals protected/total number of animals tested", "setting": "[2]; 0.5 h", "value": "2/4"}, {"measurement": "MES: number of animals protected/total number of animals tested", "setting": "[2]; 1.0 h", "value": "3/4"}, {"measurement": "MES: number of animals protected/total number of animals tested", "setting": "[2]; 2.0 h", "value": "0/4"}, {"measurement": "MES: number of animals protected/total number of animals tested", "setting": "[2]; 4.0 h", "value": "3/4"}, {"measurement": "TOX: number of animals exhibiting toxic effects/total number of animals tested", "setting": "[3]; 0.25 h", "value": "0/4"}, {"measurement": "TOX: number of animals exhibiting toxic effects/total number of animals tested", "setting": "[3]; 0.5 h", "value": "0/4"}, {"measurement": "TOX: number of animals exhibiting toxic effects/total number of animals tested", "setting": "[3]; 1.0 h", "value": "0/4"}, {"measurement": "TOX: number of animals exhibiting toxic effects/total number of animals tested", "setting": "[3]; 2.0 h", "value": "0/4"}, {"measurement": "TOX: number of animals exhibiting toxic effects/total number of animals tested", "setting": "[3]; 4.0 h", "value": "0/4"}, {"measurement": "ScMET: number of animals protected/total number of animals tested", "setting": "[4]; 30 mg/kg, 0.5 h", "value": "0/1"}, {"measurement": "ScMET: number of animals protected/total number of animals tested", "setting": "[4]; 30 mg/kg, 4.0 h", "value": "0/1"}, {"measurement": "ScMET: number of animals protected/total number of animals tested", "setting": "[4]; 100 mg/kg, 0.5 h", "value": "0/1"}, {"measurement": "ScMET: number of animals protected/total number of animals tested", "setting": "[4]; 100 mg/kg, 4.0 h", "value": "0/1"}, {"measurement": "ScMET: number of animals protected/total number of animals tested", "setting": "[4]; 300 mg/kg, 0.5 h", "value": "0/1"}, {"measurement": "ScMET: number of animals protected/total number of animals tested", "setting": "[4]; 300 mg/kg, 4.0 h", "value": "0/1"}, {"measurement": "TOX: number of animals exhibiting toxic effects/total number of animals tested", "setting": "mice (rotorod); 30 mg/kg, 0.5 h", "value": "0/4"}, {"measurement": "TOX: number of animals exhibiting toxic effects/total number of animals tested", "setting": "mice (rotorod); 30 mg/kg, 4.0 h", "value": "0/2"}, {"measurement": "TOX: number of animals exhibiting toxic effects/total number of animals tested", "setting": "mice (rotorod); 100 mg/kg, 0.5 h", "value": "0/8"}, {"measurement": "TOX: number of animals exhibiting toxic effects/total number of animals tested", "setting": "mice (rotorod); 100 mg/kg, 4.0 h", "value": "0/4"}, {"measurement": "TOX: number of animals exhibiting toxic effects/total number of animals tested", "setting": "mice (rotorod); 300 mg/kg, 0.5 h", "value": "0/4"}, {"measurement": "TOX: number of animals exhibiting toxic effects/total number of animals tested", "setting": "mice (rotorod); 300 mg/kg, 4.0 h", "value": "0/2"}]}, {"smiles": "O=C1NC(=O)C(F)(c2ccccc2)CO1", "note": "(stereo not drawn) [fluoro dioxo, 5-Fluoro-5-phenyl-1,3-oxazinane-2,4-dione]", "values": [{"measurement": "anti-seizure activity in mice", "setting": "[1]; mice", "value": "inactive"}, {"measurement": "anti-seizure activity in rats", "setting": "[2]", "value": "strong anti-seizure activity"}]}, {"smiles": "NC(=O)OCC(F)(COC(N)=O)c1ccccc1", "note": "[fluoro felbamate, 2-Fluoro-2-phenyl-1,3-propanediol dicarbamate]", "values": [{"measurement": "MES protection", "setting": "[1]; mice, 30 mg/kg, at both 30 minutes and 4 hours", "value": "MES protective effects"}, {"measurement": "times more active than felbamate", "setting": "[1]; test not specified", "value": "5-10 times"}, {"measurement": "MES protection", "setting": "[2]", "value": "full protection"}, {"measurement": "no toxicity at doses up to", "setting": "[3]; oral administration to rats", "value": "up to 500 mg/kg"}, {"measurement": "TOX ED50", "setting": "[3]; rat, p.o.", "value": ">500", "unit": "mg/kg"}, {"measurement": "Number Protected/Number Tested", "setting": "[5]; 25 mg/kg", "value": "0/7"}, {"measurement": "Number Protected/Number Tested", "setting": "[5]; 50 mg/kg", "value": "3/7"}, {"measurement": "Number Protected/Number Tested", "setting": "[5]; 100 mg/kg", "value": "7/8^a"}, {"measurement": "afterdischarge duration", "setting": "[5]; kindled rats, 100 mg/kg", "value": "corresponding decrease in afterdischarge duration"}, {"measurement": "seizure score", "setting": "[5]; kindled rats, 100 mg/kg", "value": "significant drop in seizure score"}, {"measurement": "dosage at which toxicity across time occurs", "setting": "mice (rotorod); mice", "value": "≥ 300", "unit": "mg/kg"}, {"measurement": "toxic effects", "setting": "mice (rotorod); mice, 30 mg/kg, 30 minute timepoint", "value": "some toxic effects"}, {"measurement": "safety ratio", "setting": "mice (rotorod); mice, quantitative results (Table 3)", "value": "at least five"}, {"measurement": "TOX ED50", "setting": "mice (rotorod); mouse, I.P.", "value": 115, "unit": "mg/kg"}]}, {"smiles": "NC(=O)OCC(F)(CO)c1ccccc1", "note": "(stereo not drawn) [fluoro monocarbamate felbamate, 2-Fluoro-2-phenyl-1,3-propanediol monocarbamate]", "values": [{"measurement": "MES protection", "setting": "[1]; mice, 100 mg/kg", "value": "moderate MES protection"}, {"measurement": "MES protection", "setting": "[2]", "value": "protection is seen at several different timepoints"}]}, {"smiles": "O=C1NC(=O)C(c2ccccc2)CO1", "note": "(stereo not drawn) [oxazinane-dione 9]", "values": [{"measurement": "stability at relevant pH", "setting": "[6]", "value": "unstable"}]}]}
